Data set [1] has as its system H9c2. Nature of the data set: Cytoprotective activity against OGD-induced myocardial ischemic injury in rat H9c2 cells assessed as cell viability at 5 uM preincubated for 12 hrs followed by exposure to OGD condition for 3 hrs by CCK8 assay (reference value: 49.23 to 50.05 %). Format: functional. Conditions: time 15 hrs, read-out: Activity.
In data set [2] the test system is H9c2. Nature of the data set: Cytoprotective activity against OGD-induced myocardial ischemic injury in rat H9c2 cells assessed as cell viability at 50 uM preincubated for 12 hrs followed by exposure to OGD condition for 3 hrs by CCK8 assay (reference value: 49.23 to 50.05 %). The class given is functional. Conditions: time 15 hrs, read-out: Activity.
Data set [3] has as its system H9c2. Put plainly: Cytoprotective activity against OGD-induced myocardial ischemic injury in rat H9c2 cells assessed as decrease in cell death at 5 to 50 uM preincubated for 12 hrs followed by exposure to OGD condition for 3 hrs by crystal violet staining based analysis. The conditions noted are these: dose 5-50 µM, time 15.0 hrs. The class given is functional.
Data set [4] deals with Cardiac muscle cell. Put plainly: Cytoprotective activity against OGD-induced myocardial ischemic injury in neonatal rat primary cardiomyocytes assessed as decrease in cellular damage at 1 uM preincubated for 12 hrs followed by exposure to OGD condition for 3 hrs. The class given is functional, cell-based. The conditions noted are these: time 15.0 hrs.
Data set [5] in a line: Metabolic stability in human liver microsomes assessed as intrinsic clearance measured for 5 to 60 mins in presence of NADPH by LC-MS/MS analysis. Format: ADME, Microsome. The conditions noted are these: time 5-60 min, read-out: CLH.
A short description of data set [6]: Metabolic stability in mouse liver microsomes assessed as half life measured for 5 to 60 mins in presence of NADPH by LC-MS/MS analysis. Format: ADME, Microsome. Conditions: time 5-60 min. For orientation: Microsomes from liver hold many membrane-bound enzymes, among them those of drug oxidation.
The nature of data set [7]: Metabolic stability in mouse liver microsomes assessed as intrinsic clearance measured for 5 to 60 mins in presence of NADPH by LC-MS/MS analysis. The class given is ADME, Microsome. Conditions: time 5-60 min, read-out: CLH.

The source made the active and inactive calls.

Regarding `OC[C@H]1O[C@@H](O[C@@H]2OC=C[C@H]3[C@H](O)[C@@H]4O[C@]4(COc4cccc5c4CCCC5)[C@@H]23)[C@H](O)[C@@H](O)[C@@H]1O`, the viability at 5 µM in data set [1] amounted to 54.4%. The viability at 50 µM in data set [2] was found to be 55.5%.

In the case of `O=C(/C=C/c1ccccc1)NC[C@]12O[C@H]1[C@@H](O)[C@@H]1C=CO[C@@H](O[C@@H]3O[C@H](CO)[C@@H](O)[C@H](O)[C@H]3O)[C@@H]12`, the viability at 5 µM in data set [1] is 57.9%. Moreover, in data set [2], the viability at 50 µM was 61.5%.

On to `O=C(NC[C@]12O[C@H]1[C@@H](O)[C@@H]1C=CO[C@@H](O[C@@H]3O[C@H](CO)[C@@H](O)[C@H](O)[C@H]3O)[C@@H]12)c1cccnc1`, for which the viability at 5 µM in data set [1] amounted to 58.2%. In addition, in data set [2], the viability at 50 µM was found to be 59.6%.

On to `O=C(NC[C@]12O[C@H]1[C@@H](O)[C@@H]1C=CO[C@@H](O[C@@H]3O[C@H](CO)[C@@H](O)[C@H](O)[C@H]3O)[C@@H]12)c1ccc2occc2c1`, for which the viability at 5 µM in data set [1] is 59.1%. For the same compound, the viability at 50 µM in data set [2] is 58%.

Turning to `O=C(NC[C@]12O[C@H]1[C@@H](O)[C@@H]1C=CO[C@@H](O[C@@H]3O[C@H](CO)[C@@H](O)[C@H](O)[C@H]3O)[C@@H]12)c1ccccc1`, the viability at 5 µM in data set [1] is 63.6%. The viability at 50 µM in data set [2] was 70%. Also, the Activity entry in data set [3] is “Active; Exhibited Superior Protective Efficacy Than Catal-Pol”. Besides, the result in data set [4] was Active.

As for `O=C(NC[C@]12O[C@H]1[C@@H](O)[C@@H]1C=CO[C@@H](O[C@@H]3O[C@H](CO)[C@@H](O)[C@H](O)[C@H]3O)[C@@H]12)c1cncnc1`, in data set [1], the viability at 5 µM is 58%. For the same compound, the viability at 50 µM in data set [2] turned out to be 57.5%.

Take `COc1ccc(/C=C/C(=O)NC[C@]23O[C@H]2[C@@H](O)[C@@H]2C=CO[C@@H](O[C@@H]4O[C@H](CO)[C@@H](O)[C@H](O)[C@H]4O)[C@@H]23)cc1OC`: in data set [1], the viability at 5 µM is 56.6%. In data set [2], the viability at 50 µM turned out to be 56.7%.

On to `O=C(NC[C@]12O[C@H]1[C@@H](O)[C@@H]1C=CO[C@@H](O[C@@H]3O[C@H](CO)[C@@H](O)[C@H](O)[C@H]3O)[C@@H]12)C1CCCCC1`, for which the viability at 5 µM in data set [1] amounted to 60%. The viability at 50 µM in data set [2] worked out at 61.3%.

With `COc1ccc(CC(=O)NC[C@]23O[C@H]2[C@@H](O)[C@@H]2C=CO[C@@H](O[C@@H]4O[C@H](CO)[C@@H](O)[C@H](O)[C@H]4O)[C@@H]23)cc1OC`, the viability at 5 µM in data set [1] came out at 60.9%. Further, the viability at 50 µM in data set [2] came to 59.4%.

For the compound `OC[C@H]1O[C@@H](O[C@@H]2OC=C[C@H]3[C@H](O)[C@@H]4O[C@]4(COc4ccc5ccoc5c4)[C@@H]23)[C@H](O)[C@@H](O)[C@@H]1O`, the viability at 5 µM in data set [1] was determined as 56.7%. The viability at 50 µM in data set [2] was 57%.

`O=C(NC[C@]12O[C@H]1[C@@H](O)[C@@H]1C=CO[C@@H](O[C@@H]3O[C@H](CO)[C@@H](O)[C@H](O)[C@H]3O)[C@@H]12)c1cccs1`: the viability at 5 µM in data set [1] turned out to be 54.1%. Besides, the viability at 50 µM in data set [2] stood at 60.4%.

With `OC[C@H]1O[C@@H](O[C@@H]2OC=C[C@H]3[C@H](O)[C@@H]4O[C@]4(COc4ccc(C5CCCC5)cc4)[C@@H]23)[C@H](O)[C@@H](O)[C@@H]1O`, the viability at 5 µM in data set [1] is 64.5%. In data set [2], the viability at 50 µM came to 60.8%.

`OC[C@H]1O[C@@H](O[C@@H]2OC=C[C@H]3[C@H](O)[C@@H]4O[C@]4(COc4ccc5c(c4)OCO5)[C@@H]23)[C@H](O)[C@@H](O)[C@@H]1O`: the viability at 5 µM in data set [1] turned out to be 59.6%. The viability at 50 µM in data set [2] was determined as 60.7%.

With `OC[C@H]1O[C@@H](O[C@@H]2OC=C[C@H]3[C@H](O)[C@@H]4O[C@]4(COc4ccc(F)cc4)[C@@H]23)[C@H](O)[C@@H](O)[C@@H]1O`, the viability at 5 µM in data set [1] turned out to be 61.7%. In addition, the viability at 50 µM in data set [2] is 64.6%.

Consider `OC[C@H]1O[C@@H](O[C@@H]2OC=C[C@H]3[C@H](O)[C@@H]4O[C@]4(COc4ccc(-c5ccccc5)cc4)[C@@H]23)[C@H](O)[C@@H](O)[C@@H]1O`, for which the viability at 5 µM in data set [1] came to 60%. The viability at 50 µM in data set [2] turned out to be 53.2%.

For the compound `COc1ccc(OC[C@]23O[C@H]2[C@@H](O)[C@@H]2C=CO[C@@H](O[C@@H]4O[C@H](CO)[C@@H](O)[C@H](O)[C@H]4O)[C@@H]23)cc1`, the viability at 5 µM in data set [1] came to 62.5%. In addition, the viability at 50 µM in data set [2] was found to be 57.5%.

With `O=C(O)Cc1ccccc1Nc1c(Cl)cccc1Cl` [DICLOFENAC], the CLint scaled in data set [5] is 202 mL/min/kg; in data set [7], 82.9 mL/min/kg. The half-life – broadly, the time needed for the level to fall by half in the phase considered – in data set [6] stood at 1.1 h.

Consider `OC[C@H]1O[C@@H](O[C@@H]2OC=C[C@H]3[C@H](O)[C@@H]4O[C@]4(COc4ccccc4)[C@@H]23)[C@H](O)[C@@H](O)[C@@H]1O`, for which the viability at 5 µM in data set [1] is 59.1%. Moreover, the viability at 50 µM in data set [2] came to 60.5%.

On to `O=C(NC[C@]12O[C@H]1[C@@H](O)[C@@H]1C=CO[C@@H](O[C@@H]3O[C@H](CO)[C@@H](O)[C@H](O)[C@H]3O)[C@@H]12)c1ccco1`, for which the viability at 5 µM in data set [1] worked out at 58.8%. For the same compound, in data set [2], the viability at 50 µM was 55.6%.

Regarding `OC[C@H]1O[C@@H](O[C@@H]2OC=C[C@H]3[C@H](O)[C@@H]4O[C@]4(COc4ccc(C5CCCCC5)cc4)[C@@H]23)[C@H](O)[C@@H](O)[C@@H]1O`, the viability at 5 µM in data set [1] was 60.9%. In addition, in data set [2], the viability at 50 µM worked out at 56.6%.

As to `OC[C@H]1O[C@@H](O[C@@H]2OC=C[C@H]3[C@H](O)[C@@H]4O[C@]4(COc4cc(C(F)(F)F)cc(C(F)(F)F)c4)[C@@H]23)[C@H](O)[C@@H](O)[C@@H]1O`, the viability at 5 µM in data set [1] turned out to be 56.1%. Moreover, the viability at 50 µM in data set [2] was 50.1%.

With `COc1ccc(C(=O)NC[C@]23O[C@H]2[C@@H](O)[C@@H]2C=CO[C@@H](O[C@@H]4O[C@H](CO)[C@@H](O)[C@H](O)[C@H]4O)[C@@H]23)cc1OC`, the viability at 5 µM in data set [1] was determined as 62.1%. Further, the viability at 50 µM in data set [2] amounted to 57.8%.

For `OC[C@H]1O[C@@H](O[C@@H]2OC=C[C@H]3[C@H](O)[C@@H]4O[C@]4(COc4cccc5ccccc45)[C@@H]23)[C@H](O)[C@@H](O)[C@@H]1O`, the viability at 5 µM in data set [1] was found to be 55.5%. Also, the viability at 50 µM in data set [2] worked out at 58.8%.

As for `COc1cc(OC[C@]23O[C@H]2[C@@H](O)[C@@H]2C=CO[C@@H](O[C@@H]4O[C@H](CO)[C@@H](O)[C@H](O)[C@H]4O)[C@@H]23)cc(OC)c1OC`, in data set [1], the viability at 5 µM was 63.9%. Moreover, the viability at 50 µM in data set [2] turned out to be 55.1%.

Turning to `O=C(NC[C@]12O[C@H]1[C@@H](O)[C@@H]1C=CO[C@@H](O[C@@H]3O[C@H](CO)[C@@H](O)[C@H](O)[C@H]3O)[C@@H]12)c1ccncc1`, the viability at 5 µM in data set [1] is 54.2%. Besides, the viability at 50 µM in data set [2] worked out at 57.5%.

The record behind these values is ChEMBL document CHEMBL6153118, “Structure Optimization of Natural Product Catalpol to Obtain Novel and Potent Analogs against Heart Failure” (J Med Chem, 2025).
